Patent publication US8420595B2, “Methods for treating acute acoustic trauma” (Oklahoma Medical Research Foundation, priority 2006, dated 2013)

Test system: AAT-induced hearing loss (six hours of 4 kHz octave band noise at 105 dB SPL)
Test: Acute acoustic trauma (AAT) in chinchillas, hearing levels by auditory brainstem response (ABR)
Format: in vivo, chinchilla
Conditions: every tested frequency
Experimental: With reference first to Tables 1-A, 1-B and 1-C, tests were conducted using six chinchillas for each experimental group and the control group. In these tests, the animals were exposed to AAT generated by six hours of noise exposure at 4 kHz octave band noise at 105 dB SPL. Treatments using 4-OHPBN (dosages of 10, 20, 50, and 75 mg/kg), ALCAR (dosages of 0, 20, 30, and 50 mg/kg), and NAC (50, 100, and 200 mg/kg) were given four hours after the AAT by intraperitoneal injection. Hearing levels were determined by auditory brainstem response (ABR) prior to the AAT event (baseline) and at 21 days post injection.
Table 3 depicts the results provided by treatment with a preferred embodiment of the current invention. In this embodiment, the AAT treatment therapy utilized a combination of 4-OHPBN (50 mg/kg) with NAC (100 mg/kg). Treatment consisted of intraperitoneal injection of the combined 4-OHPBN and NAC four hours after the AAT event. In this instance, six chinchillas were used for each test group. The animals were exposed to an AAT event produced by six hours of noise exposure at 4 kHz octave band noise at 105 dB SPL. Hearing levels reported in Table 3 were determined using the ABR method prior to the AAT event and 21 days post AAT. […] As indicated by the * each result was determined to be statistically significant and resulting from the treatment with the combination of 4-OHPBN and NAC. Statistical analysis was carried out using a one way ANOVA procedure and Post hoc test. While the above tests were conducted at the specified dosages, effective results should be realized at dosages between about 5 mg/kg and about 300 mg/kg for NAC and about 5 mg/kg and about 150 mg/kg for 4-OHPBN when NAC and 4-OHPBN are used in combination.
Table 4 depicts the results provided by treatment with another preferred embodiment of the current invention. The test for this embodiment utilized three test groups consisting of six chinchillas each. The chinchillas were exposed to an AAT event generated by a 105 dB narrow-band noise centered at 4 kHz for 6 hours. In this embodiment, the AAT treatment therapy utilized a combination of 4-OHPBN (20 mg/kg) with NAC (50 mg/kg) and ALCAR (20 mg/kg). Treatment consisted of intraperitoneal injection of the combined 4-OHPBN, NAC and ALCAR beginning four hours after noise exposure with injections repeated twice daily for the next two days. The control group was injected with carrier solution. Hearing levels reported in Table 4 were determined using the ABR method prior to the AAT event, immediately after the AAT event and 21 days after the AAT event.
Mean ABR threshold shifts were obtained and statistically analyzed using a two-way ANOVA procedure.

Structure (SMILES) | p (two way ANOVA and Post hoc test) vs control, ABR hearing level (ALCAR 30 mg/kg i.p. four hours after AAT) | p (two way ANOVA and Post hoc test) vs control, ABR hearing level (ALCAR 50 mg/kg i.p. four hours after AAT) | p (two way ANOVA and Post hoc test) vs control, ABR hearing level (NAC 100 mg/kg i.p. four hours after AAT) | p (two way ANOVA and Post hoc test) vs control, ABR hearing level (NAC 200 mg/kg i.p. four hours after AAT)
CC(=O)O[C@H](CC(=O)[O-])C[N+](C)(C)C [ALCAR, Acetyl-L-Carnitine] | < 0.05 | < 0.05 |  | 
CC(=O)N[C@@H](CS)C(=O)O [NAC, N-acetylcysteine] |  |  | < 0.05 | < 0.05
